Test results as given in patent EP0097127A2, “Cephalosporin derivatives, process for their preparation and pharmaceutical compositions containing them” (CIBA-GEIGY AG, priority 1982, dated 1983).

Assays:
Experiment in all cases: Chemotherapeutic activity against systemic infection in mice
Type in all cases: in vivo
Escherichia coli 205 = conditions: systemic infection in mice with Escherichia coli 205; oral application
Procedure: (§1) Die Verbindungen der Formel I, worin Am eine freie Aminogruppe ist und ihre pharmazeutisch verwendbaren, nichttoxischen Salze sind wertvolle, antibiotisch wirksame Substanzen, die insbesondere als antibakterielle Antibiotika verwendet werden können. Beispielsweise haben sie in vivo bei oraler Applikation an der Maus bei systemischen Infektionen mit Staphylococcus aureus eine ED50 von etwa 70-100 mg/kg, und bei systemischen Infektionen mit Enterobakterien, z.B. Escherichia coli, Klebsiella pneumonia, Proteus mirabilis oder Proteus morganii eine ED50 von etwa 0.35 bis 100 mg/kg.
(§2) Chemotherapeutische Wirksamkeit gegen systemische Infektionen in Mäusen.

[1] = test system: Staphylococcus aureus 10B; conditions: systemic infection in mice with Staphylococcus aureus 10B; oral application
Procedure: as §1, §2

Escherichia coli 2018 = conditions: systemic infection in mice with Escherichia coli 2018; oral application
Procedure: as §1, §2

Proteus morganii = conditions: Morganella morganii; systemic infection in mice with Proteus morganii; oral application
Procedure: as §1, §2

Proteus mirabilis = conditions: systemic infection in mice with Proteus mirabilis; oral application
Procedure: as §1, §2

Klebsiella pneumonia = conditions: Klebsiella pneumoniae; systemic infection in mice with Klebsiella pneumonia; oral application
Procedure: as §1, §2

Row | Compound | ED50 (Escherichia coli 205) [mg/kg] | ED50 [1] [mg/kg] | ED50 (Escherichia coli 2018) [mg/kg] | ED50 (Proteus morganii) [mg/kg] | ED50 (Proteus mirabilis) [mg/kg] | ED50 (Klebsiella pneumonia) [mg/kg]
1 | CO/N=C(\C(=O)N[C@@H]1C(=O)N2C(C(=O)OCC(=O)O[C@@H]3C[C@@H]4CC[C@@]3(C)C4(C)C)=CCS[C@H]12)c1csc(N)n1 [Testverbindung 1, Ceftizoxime-(ℓ)-bornyloxycarbonylmethylester] | 1 | 70 | 0.35 | 30 | 10 | 6
2 | CO/N=C(\C(=O)N[C@@H]1C(=O)N2C(C(=O)OCC(=O)OC3CCCCC3)=CCS[C@H]12)c1csc(N)n1 [Testverbindung 2, Ceftizoxime-cyclohexyloxycarbonylmethylester] | 0.5 to 5 | > 100 | 0.4 | > 100 | > 30 | 7
3 | CO/N=C(\C(=O)N[C@@H]1C(=O)N2C(C(=O)OCC(=O)O[C@@H]3C[C@H](C)CC[C@H]3C(C)C)=CCS[C@H]12)c1csc(N)n1 [Testverbindung 3, Ceftizoxime-(9)-menthyloxycarbonylmethylester] | 4 | 30 to 100 | 1.5 | 100 | ≥ 30 | 4
